pEC50, pIC50: −log10 of the molar value. Like-named read-outs stand apart in the source and are kept apart here.
Key:
Assay type in all cases: cell-based
[1] = tested on: cell Vero-E6; experiment: Cytotoxicity detection (CCK-8), cell Vero-E6; settings: for toxic effect on the cell Vero-E6: 48 hours, CCK-8; for cytotoxicity: within the effective concentration range, cell not named
Procedure: (§1) • 1. Method: • 1) Cell inoculation: Cells Vero-E6 and 293T/ACE2 in a logarithmic growth period were taken, cell densities thereof were adjusted to 1^∗10^4 cells/well, and 100 µL/well thereof were respectively inoculated on a 96-well plate and cultured overnight. • 2) Drug concentration design: Before administration, a drug was diluted to nine concentration gradients with a DMEM medium containing fetal bovine serum of 2% of a total volume twice multiple proportions, and an initial concentration of the drug was set to 200 µM (200, 100, 50, 25, 12.5, 6.25, 3.125, 1.5625, 0.78125 µM), and 100 µL per well of a diluted drug was taken to be added into the cells Vero-E6 and 293T/ACE2 in the 96-well plate in 1), with a final volume of 200 µL per well. Triplicate wells were set for each drug concentration. A DMSO solvent treatment group was used as a blank control. • 3) Absorbance detection: After incubation in an incubator for 48 hours, 10 µL of a CCK-8 working solution was added into each well, and incubation continued to be conducted in the incubator for 3 hours. The absorbance at 450 nm was measured by a microplate reader. • 4) According to measured OD values, survival rates of the cells Vero-E6 and 293T/ACE2 under the action of various concentrations of the drug were calculated respectively compared with the control group. • 2.
(§2) • 1. Method: • 1) Cell inoculation: Cells Vero-E6 and 293T/ACE2 in a logarithmic growth period were taken, cell densities thereof were adjusted to 1^∗10^4 cells/well, and 100 µL/well thereof were respectively inoculated on a 96-well plate and cultured overnight in a 37°C cell incubator. • 2) Drug concentration design: Before administration, a drug was diluted to eight concentration gradients with a DMEM medium containing fetal bovine serum of 2% of a total volume twice multiple proportions. Cell Vero-E6: an initial concentration was set to 200 µM (200, 100, 50, 25, 12.5, 6.25, 3.125, 1.5625 µM), and 100 µL per well of a diluted drug was taken to be added into the cell Vero-E6 in the 96-well plate in 1), with a final volume of 200 µL per well. Triplicate wells were set for each drug concentration. A DMSO solvent treatment group was used as a blank control. Cell 293T/ACE2: an initial concentration was set to 100 µM (100, 50, 25, 12.5, 6.25, 3.125, 1.5625, 0.78125 µM), and 100 µL per well of a diluted drug was taken to be added into the cell 293T/ACE2 in the 96-well plate in 1), with a final volume of 200 µL per well. Triplicate wells were set for each drug concentration. A DMSO solvent treatment group was used as a blank control. • 3) Absorbance detection: After incubation in an incubator for 48 hours, 10 µL of a CCK-8 working solution was added into each well, and incubation continued to be conducted in the incubator for 3 hours. The absorbance at 450 nm was measured by a microplate reader. • 4) According to measured OD values, survival rates of the cells Vero-E6 and 293T/ACE2 under the action of various concentrations of the drug were calculated respectively compared with the control group.
• 1. Method: • 1) Cell inoculation: Cells Vero-E6 and 293T/ACE2 in a logarithmic growth period were taken, cell densities thereof were adjusted to 1^∗10^4 cells/well, and 100 µL/well thereof were respectively inoculated on a 96-well plate and cultured overnight. • 2) Drug concentration design: Before administration, a drug was diluted to nine concentration gradients with a DMEM medium containing fetal bovine serum of 2% of a total volume twice multiple proportions, and an initial concentration was set to 200 µM (200, 100, 50, 25, 12.5, 6.25, 3.125, 1.5625, 0.78125 µM), and 100 µL per well of a diluted drug was taken to be added into the cells Vero-E6 and 293T/ACE2 in the 96-well plate in 1), with a final volume of 200 µL per well. Triplicate wells were set for each drug concentration. […]

[2] = tested on: SARS-CoV-2; experiment: microbe, parasite or virus in culture; settings: read-out: half effective concentration EC50 on activity of SARS-CoV-2
[3] = tested on: cell 293T/ACE2; experiment: Cytotoxicity detection (CCK-8), cell 293T/ACE2; settings: 48 hours
Procedure: as §1
as §2, with “Cell 293T/ACE2: an initial concentration was set to 100 µM (100, 50, 25, 12.5, 6.25, 3.125, 1.5625, 0.78125 µM), and 100 µL per well of a diluted drug was taken to be added into the cell 293T/ACE2 in the 96-well plate in 1), with a final volume of 200 µL per well. Triplicate wells were set for each drug concentration.” left out, “group. […]” for “group.”

[4] = tested on: SARS-CoV-2 pseudovirus; experiment: microbe, parasite or virus in culture; settings: Severe acute respiratory syndrome-related coronavirus, 293T/ACE2, 48 h, read-out: half inhibitory concentration IC50 to inhibit entering of the SARS-CoV-2 pseudovirus into a target cell
[5] = at 100 µM and within an effective concentration range
[6] = Severe acute respiratory syndrome coronavirus 2, Vero C1008, 24 h
[7] = at 200 µM and within an effective concentration range

Compound	toxic effect on the cell Vero-E6 [1, 5]	cytotoxicity [1]	pEC50 [2]	pEC50 [2, 6]	toxic effect on the cell Vero-E6 ([1]; at 10 µM and within an effective concentration range)	toxic effect on the cell 293T/ACE2 ([3]; at 2.5 µM and within an effective concentration range)	pIC50 [4]	toxic effect on the cell Vero-E6 [1, 7]	toxic effect on the cell 293T/ACE2 [3, 7]	toxic effect on the cell 293T/ACE2 [3, 5]
Cc1coc2c1C(=O)C(=O)c1c-2ccc2c(C)cccc12 [Tanshinone I]	no obvious toxic effect	no obvious cytotoxicity	5.53							
C[C@H]1COC2=C1C(=O)C(=O)c1c2ccc2c1CCCC2(C)C [cryptotanshinone, Cryptotanshinone]	no obvious toxic effect	no obvious cytotoxicity		5.84						
Cc1cccc2c3c(ccc12)C1=C(C(=O)C3=O)[C@@H](C)CO1 [dihydrotanshinone I]		no obvious cytotoxicity		6.19	no obvious toxic effect	no obvious toxic effect	6.17			
O=C(O)[C@H](O)Cc1ccc(O)c(O)c1 [salvianic acid A]		no obvious cytotoxicity		5.97			5.57	no obvious toxic effect	no obvious toxic effect	
O=C(/C=C/c1ccc(O)c2c1[C@H](C(=O)O[C@H](Cc1ccc(O)c(O)c1)C(=O)O)[C@@H](c1ccc(O)c(O)c1)O2)O[C@H](Cc1ccc(O)c(O)c1)C(=O)O [salvianolic acid B]		no obvious cytotoxicity		4.26			6.38	no obvious toxic effect		no obvious toxic effect
O=C(/C=C/c1ccc(O)c2oc(-c3ccc(O)c(O)c3)cc12)O[C@H](Cc1ccc(O)c(O)c1)C(=O)O [salvianolic acid C]		no obvious cytotoxicity		5.47			5.23	no obvious toxic effect	no obvious toxic effect	
